For experiment [1], the target named is T1, Muscarinic acetylcholine receptor M1 (Homo sapiens) (UniProt P11229).
T1 sequence (whole entry): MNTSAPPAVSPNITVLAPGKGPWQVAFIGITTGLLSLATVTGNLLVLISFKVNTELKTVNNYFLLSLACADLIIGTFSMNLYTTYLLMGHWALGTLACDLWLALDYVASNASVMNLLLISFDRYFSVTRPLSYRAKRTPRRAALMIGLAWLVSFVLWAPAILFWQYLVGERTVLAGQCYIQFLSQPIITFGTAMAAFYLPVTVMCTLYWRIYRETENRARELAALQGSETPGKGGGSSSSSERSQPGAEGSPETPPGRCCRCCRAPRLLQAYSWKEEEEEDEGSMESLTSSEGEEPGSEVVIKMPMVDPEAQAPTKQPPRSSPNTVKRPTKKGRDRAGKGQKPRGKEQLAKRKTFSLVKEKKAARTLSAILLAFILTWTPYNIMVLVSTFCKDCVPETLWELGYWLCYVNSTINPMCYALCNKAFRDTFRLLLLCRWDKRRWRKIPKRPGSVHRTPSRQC
The experiment can be described thus: Agonist activity at human m1 muscarinic acetylcholine receptor expressed in HEK293 cells assessed as activation of ERK1/2 phosphorylation after 2 mins by Western blotting analysis. The experiment is classed as cell-based. A general note: Immunoblotting shows a protein as a band on a membrane.

Experiment [2] addresses T1, Muscarinic acetylcholine receptor M1 (Homo sapiens). Kind of experiment: Agonist activity at human m1 muscarinic acetylcholine receptor expressed in HEK293 cells assessed as relative ratio of phosphorylated ERK1/2 to ERK1/2 at 1 uM after 2 mins by Western blotting analysis relative to 100 uM acetylcholine response. The experiment is classed as cell-based.
For experiment [3] the target is unchanged. Kind of experiment: Agonist activity at human m1 muscarinic acetylcholine receptor expressed in HEK293 cells assessed as relative ratio of phosphorylated ERK1/2 to ERK1/2 at 10 uM after 2 mins by Western blotting analysis relative to 100 uM acetylcholine response. The experiment is classed as cell-based.
For experiment [4] the target is unchanged. Kind of experiment: Agonist activity at human m1 muscarinic acetylcholine receptor expressed in HEK293 cells assessed as relative ratio of phosphorylated ERK1/2 to ERK1/2 at 100 uM after 2 mins by Western blotting analysis relative to 100 uM acetylcholine response. The experiment is classed as cell-based.
Experiment [5] relates to SH-SY5Y. The experiment can be described thus: Induction of sAPPalpha release in human SH-SY5Y cells after 1 hr by immunoblotting analysis. The experiment is classed as functional, cell-based.
Experiment [6] has as its system SH-SY5Y. Kind of experiment: Induction of sAPPalpha release in human SH-SY5Y cells assessed as fold changed at 0.01 uM after 1 hr by immunoblotting analysis relative to 100 uM acetylcholine response. The experiment is classed as functional.
The test system of experiment [7] is SH-SY5Y. Kind of experiment: Induction of sAPPalpha release in human SH-SY5Y cells assessed as fold changed at 0.1 uM after 1 hr by immunoblotting analysis relative to 100 uM acetylcholine response. The experiment is classed as functional.
Experiment [8] relates to SH-SY5Y. Kind of experiment: Induction of sAPPalpha release in human SH-SY5Y cells assessed as fold changed at 1 uM after 1 hr by immunoblotting analysis relative to 100 uM acetylcholine response. The experiment is classed as functional.
The target of experiment [9] is T2, Muscarinic acetylcholine receptor M1 (Homo sapiens, UniProt P11229).
T2 sequence (P11229 whole entry): T1 sequence (whole entry)

Experiment [10] has as its target T1, Muscarinic acetylcholine receptor M1 (Homo sapiens). Conditions: HEK293, at 10 µM.
For experiment [11] the target is unchanged. Conditions: HEK293, at 10 µM. The source holds these as a separate data set.

Molecules are shown by their SMILES. pEC50: −log10 of the molar value.

Consider `CN1CCC=C(C2=NOC(N3CCCC3=O)C2)C1` (stereo not drawn), for which the Activity entry (in experiment [1]; in the experiment on SH-SY5Y [5]) was “Dose-dependent effect” throughout. Moreover, the Ratio came out at 1.3 in experiment [2], 1.7 in experiment [3] and 1.8 in experiment [4]. Also, the results for the “fold change (FC)” value in the experiment on SH-SY5Y [6], with SH-SY5Y [7] and with SH-SY5Y [8] were 1.5, 2.5 and 3.4, respectively. Also, the negative-log EC50 (pEC50) (usually the EC50 on a negative log10 scale, so that one unit is a factor of ten) in [9] was 7.51. Also, the Efficacy in experiment [10] was 99.5%.
In turn, `CO/N=C/C1=CCCN(C)C1` [MILAMELINE] gave a negative-log EC50 (pEC50) in experiment [9] of 7.68. The same compound had an Efficacy in experiment [10] of 83%.
`CN1CCC=C(C2=NOC(C#N)C2)C1` (stereo not drawn) had a pEC50 in experiment [9] of 5.12. The compound further had an Efficacy in experiment [10] of 58.8%.
In experiment [10], `CN1CCCC(C2=NOC(N3CCCC3=O)C2)C1` (stereo not drawn) yielded an Efficacy of 2.2%. For the same compound, the inhibition (in general, the change of the read-out against control, counted positive when it falls) in [11] stood at 20.7%.
In experiment [10], `O=C1CCCN1C1CC(CN2CCCC2)=NO1` (stereo not drawn) showed an Efficacy of 2.2%. In experiment [11], this compound returned an inhibition of 20.7%.
In turn, `O=C1CCCN1CC#CCN1CCCC1` [OXOTREMORINE] had a negative-log EC50 (pEC50) in experiment [9] of 8.80. The compound further gave an Efficacy in experiment [10] of 108%.
In experiment [10], `O=C1CCCN1C1CC(CCN2CCCCC2)=NO1` (stereo not drawn) yielded an Efficacy of 2.2%. In addition, the inhibition in experiment [11] worked out at 20.7%.
Turning to `CN1CCC=C(C2=NOC(O)C2)C1` (stereo not drawn), the negative logarithm of the EC50 (pEC50) in experiment [9] was 4.76. This compound also registered an Efficacy in [10] of 36.9%.
The compound `O=C1CCCN1C1CC(CCN2CCCC2)=NO1` (stereo not drawn) came in with an Efficacy in [10] of 2.2%. The same compound had an inhibition in experiment [11] of 20.7%.
The corresponding values for `CN1CCC=C(C2=NOC(Sc3ccccc3)C2)C1` (stereo not drawn) are 2.3% and 49.4%.
The corresponding values for `O=C1CCCN1C1CC(CN2CCCCC2)=NO1` (stereo not drawn) are 2.2% and 20.7%.
The compound `CSCC1CC(C2=CCCN(C)C2)=NO1` (stereo not drawn) gave a pEC50 in experiment [9] of 5.25. The compound also came in with an Efficacy in [10] of 61.3%.
The corresponding values for `CN1CCC=C(c2ccon2)C1` are 6.11 and 95.8%.
Compound `CN1CCC=C(C2=NOC(CO)C2)C1` (stereo not drawn) gave an Efficacy in experiment [10] of 1.7%. Moreover, in experiment [11], the inhibition stood at 12.3%.
The corresponding values for `CCOC1CC(C2=CCCN(C)C2)=NO1` (stereo not drawn) are 2.4% and 34%.

For the origin of these results see ChEMBL document CHEMBL3399973, “Synthesis and biological evaluation of isoxazoline derivatives as potent M₁ muscarinic acetylcholine receptor agonists” (Bioorg Med Chem Lett, 2015).
